Measured values as given in the kinase profiling compilation of Christmann-Franck et al. (2016).

Assays:
Assay in all cases: KINOMEscan competition binding
Conditions in all cases: compound 10.0 µM
[1] = target: MAP4K4 (human) (UniProt O95819)
[2] = target: RIOK1 (human) (UniProt Q9BRS2)
[3] = target: TAOK3 (human) (UniProt Q9H2K8)
[4] = target: NLK (human) (UniProt Q9UBE8)
[5] = target: PAK6 (human) (UniProt Q9NQU5)
[6] = target: DAPK3 (human) (UniProt O43293)
[7] = target: FES (human) (UniProt P07332)
FES (human), sequence (P07332 whole entry, looked up): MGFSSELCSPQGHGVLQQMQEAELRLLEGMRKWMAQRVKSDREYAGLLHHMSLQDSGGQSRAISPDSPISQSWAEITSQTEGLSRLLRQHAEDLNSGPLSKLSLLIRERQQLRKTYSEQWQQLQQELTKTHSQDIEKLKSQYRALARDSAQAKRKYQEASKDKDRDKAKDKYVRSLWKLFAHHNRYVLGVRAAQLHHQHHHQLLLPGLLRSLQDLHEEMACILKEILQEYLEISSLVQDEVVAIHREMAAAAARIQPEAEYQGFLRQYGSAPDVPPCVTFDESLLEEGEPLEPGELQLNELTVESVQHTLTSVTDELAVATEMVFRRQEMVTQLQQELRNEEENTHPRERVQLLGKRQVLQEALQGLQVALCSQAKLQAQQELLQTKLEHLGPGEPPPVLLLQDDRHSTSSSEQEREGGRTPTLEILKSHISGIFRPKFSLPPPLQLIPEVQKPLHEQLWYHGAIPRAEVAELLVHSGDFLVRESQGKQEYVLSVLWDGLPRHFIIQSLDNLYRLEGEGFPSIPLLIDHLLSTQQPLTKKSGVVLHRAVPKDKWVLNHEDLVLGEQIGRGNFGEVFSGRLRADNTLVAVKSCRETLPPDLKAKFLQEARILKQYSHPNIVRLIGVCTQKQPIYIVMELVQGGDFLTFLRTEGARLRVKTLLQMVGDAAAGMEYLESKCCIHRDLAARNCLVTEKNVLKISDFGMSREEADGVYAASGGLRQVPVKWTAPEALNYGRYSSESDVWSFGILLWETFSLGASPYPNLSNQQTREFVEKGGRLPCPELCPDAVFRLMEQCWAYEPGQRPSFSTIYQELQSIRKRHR

[8] = target: CAMK4 (human) (UniProt Q16566)
[9] = target: MAPK7 (human) (UniProt Q13164)
[10] = target: IGF1R (human) (UniProt P08069)
[11] = target: RPS6KA6 KD1 (human) (UniProt Q9UK32)
[12] = target: ACVR1B (human) (UniProt P36896)
[13] = target: BMPR1B (human) (UniProt O00238)
BMPR1B (human), sequence (O00238 whole entry, looked up): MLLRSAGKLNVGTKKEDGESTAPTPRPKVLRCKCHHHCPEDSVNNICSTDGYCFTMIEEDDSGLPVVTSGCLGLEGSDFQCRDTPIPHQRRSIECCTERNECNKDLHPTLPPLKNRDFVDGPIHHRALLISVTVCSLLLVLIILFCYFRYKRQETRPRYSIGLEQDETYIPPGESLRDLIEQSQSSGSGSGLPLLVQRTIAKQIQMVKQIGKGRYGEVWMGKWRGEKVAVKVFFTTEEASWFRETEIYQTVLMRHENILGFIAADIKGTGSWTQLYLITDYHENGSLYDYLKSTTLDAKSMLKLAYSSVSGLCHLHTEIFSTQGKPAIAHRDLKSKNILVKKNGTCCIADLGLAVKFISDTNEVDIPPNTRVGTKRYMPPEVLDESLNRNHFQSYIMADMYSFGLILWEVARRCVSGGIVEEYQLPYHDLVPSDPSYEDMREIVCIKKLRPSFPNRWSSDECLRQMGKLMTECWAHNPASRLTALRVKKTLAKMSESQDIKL

[14] = target: NEK2 (human) (UniProt P51955)
[15] = target: TGFBR1 (human) (UniProt P36897)
[16] = target: FER (human) (UniProt P16591)
[17] = target: MAP2K5 (human) (UniProt Q13163)
MAP2K5 (human), sequence (Q13163 whole entry, looked up): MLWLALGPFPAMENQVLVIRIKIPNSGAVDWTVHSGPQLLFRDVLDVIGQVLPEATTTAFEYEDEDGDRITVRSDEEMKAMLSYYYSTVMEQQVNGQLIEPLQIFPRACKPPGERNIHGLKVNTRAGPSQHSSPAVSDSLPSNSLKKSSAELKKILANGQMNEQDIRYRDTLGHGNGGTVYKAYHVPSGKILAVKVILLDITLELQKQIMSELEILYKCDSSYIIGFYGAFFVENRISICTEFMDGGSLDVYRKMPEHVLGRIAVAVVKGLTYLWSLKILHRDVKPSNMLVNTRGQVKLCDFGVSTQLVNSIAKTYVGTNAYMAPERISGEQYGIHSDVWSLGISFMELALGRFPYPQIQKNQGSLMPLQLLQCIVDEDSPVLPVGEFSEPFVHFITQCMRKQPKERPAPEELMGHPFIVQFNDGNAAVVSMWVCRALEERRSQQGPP

[18] = target: MAP2K3 (human) (UniProt P46734)
MAP2K3 (human), sequence (P46734 whole entry, looked up): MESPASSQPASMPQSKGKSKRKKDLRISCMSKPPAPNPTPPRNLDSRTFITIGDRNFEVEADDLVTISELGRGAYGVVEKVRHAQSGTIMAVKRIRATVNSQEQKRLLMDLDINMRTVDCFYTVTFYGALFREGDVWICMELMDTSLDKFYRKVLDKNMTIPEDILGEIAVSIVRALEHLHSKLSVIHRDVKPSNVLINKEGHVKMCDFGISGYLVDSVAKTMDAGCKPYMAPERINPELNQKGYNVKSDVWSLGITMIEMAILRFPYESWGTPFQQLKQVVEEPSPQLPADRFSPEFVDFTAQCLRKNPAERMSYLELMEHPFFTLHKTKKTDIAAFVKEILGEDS

[19] = target: FLT4 (human) (UniProt P35916)
[20] = target: MAK (human) (UniProt P20794)
[21] = target: MET (human) (UniProt P08581)
[22] = target: CLK4 (human) (UniProt Q9HAZ1)
[23] = target: ULK1 (human) (UniProt O75385)
[24] = target: MAPK14 (human) (UniProt Q16539)
[25] = target: STK10 (human) (UniProt O94804)
STK10 (human), sequence (O94804 whole entry, looked up): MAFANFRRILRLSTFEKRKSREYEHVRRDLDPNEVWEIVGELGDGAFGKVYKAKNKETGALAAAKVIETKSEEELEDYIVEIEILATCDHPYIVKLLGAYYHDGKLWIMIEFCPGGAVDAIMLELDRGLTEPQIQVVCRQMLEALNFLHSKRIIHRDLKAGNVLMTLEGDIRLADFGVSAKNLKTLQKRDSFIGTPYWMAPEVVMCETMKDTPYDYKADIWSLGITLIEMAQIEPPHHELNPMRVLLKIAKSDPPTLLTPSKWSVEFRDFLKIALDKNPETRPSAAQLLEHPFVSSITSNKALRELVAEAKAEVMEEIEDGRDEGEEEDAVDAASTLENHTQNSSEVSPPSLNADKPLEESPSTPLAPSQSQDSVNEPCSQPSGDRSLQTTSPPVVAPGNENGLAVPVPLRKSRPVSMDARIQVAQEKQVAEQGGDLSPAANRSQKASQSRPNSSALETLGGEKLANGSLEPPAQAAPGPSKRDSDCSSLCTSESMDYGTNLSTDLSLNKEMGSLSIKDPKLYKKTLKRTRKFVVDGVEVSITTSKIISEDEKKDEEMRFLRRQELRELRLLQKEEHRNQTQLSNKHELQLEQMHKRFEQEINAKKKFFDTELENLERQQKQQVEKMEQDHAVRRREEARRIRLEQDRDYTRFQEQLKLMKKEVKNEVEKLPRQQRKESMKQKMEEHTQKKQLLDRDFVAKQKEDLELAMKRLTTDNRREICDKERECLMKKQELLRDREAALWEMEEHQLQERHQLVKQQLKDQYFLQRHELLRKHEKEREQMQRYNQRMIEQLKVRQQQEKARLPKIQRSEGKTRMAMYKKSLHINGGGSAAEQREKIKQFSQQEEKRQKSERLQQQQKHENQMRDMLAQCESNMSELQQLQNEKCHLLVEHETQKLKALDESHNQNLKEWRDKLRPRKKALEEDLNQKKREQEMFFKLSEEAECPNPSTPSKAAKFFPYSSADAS

[26] = target: RET (human) (UniProt P07949)
RET (human), sequence (P07949 whole entry, looked up): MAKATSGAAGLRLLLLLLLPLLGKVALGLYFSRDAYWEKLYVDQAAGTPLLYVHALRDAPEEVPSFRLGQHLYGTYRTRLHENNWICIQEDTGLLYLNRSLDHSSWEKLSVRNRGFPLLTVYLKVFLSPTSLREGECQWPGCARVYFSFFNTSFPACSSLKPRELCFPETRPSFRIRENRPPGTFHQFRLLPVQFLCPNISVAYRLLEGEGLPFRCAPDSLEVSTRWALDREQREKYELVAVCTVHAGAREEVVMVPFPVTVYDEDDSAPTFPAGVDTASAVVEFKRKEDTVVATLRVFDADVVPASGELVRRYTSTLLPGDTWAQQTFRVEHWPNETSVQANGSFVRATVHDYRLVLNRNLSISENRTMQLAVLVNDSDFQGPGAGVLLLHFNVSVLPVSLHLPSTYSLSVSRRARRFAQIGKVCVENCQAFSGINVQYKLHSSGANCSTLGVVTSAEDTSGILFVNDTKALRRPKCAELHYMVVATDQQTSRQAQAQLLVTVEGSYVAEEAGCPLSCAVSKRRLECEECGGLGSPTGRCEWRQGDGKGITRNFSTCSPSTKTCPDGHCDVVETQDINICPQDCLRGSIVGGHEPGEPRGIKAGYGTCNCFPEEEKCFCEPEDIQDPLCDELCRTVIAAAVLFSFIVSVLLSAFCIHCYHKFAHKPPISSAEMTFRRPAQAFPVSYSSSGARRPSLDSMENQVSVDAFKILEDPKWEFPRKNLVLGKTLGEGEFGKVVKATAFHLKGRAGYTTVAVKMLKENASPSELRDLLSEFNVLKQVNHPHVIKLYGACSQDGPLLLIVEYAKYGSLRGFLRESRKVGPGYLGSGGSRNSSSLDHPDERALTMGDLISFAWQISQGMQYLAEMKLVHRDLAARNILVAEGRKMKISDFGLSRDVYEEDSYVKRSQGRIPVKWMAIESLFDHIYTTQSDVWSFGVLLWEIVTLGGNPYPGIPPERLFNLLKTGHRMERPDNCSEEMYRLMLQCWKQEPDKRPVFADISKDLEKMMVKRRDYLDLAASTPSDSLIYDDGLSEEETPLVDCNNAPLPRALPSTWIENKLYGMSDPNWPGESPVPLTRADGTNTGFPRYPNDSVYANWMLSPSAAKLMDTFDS

[27] = target: EPHA2 (human) (UniProt P29317)
[28] = target: PIK3C2G (human) (UniProt O75747)
[29] = target: PIM2 (human) (UniProt Q9P1W9)
[30] = target: RPS6KA1 KD1 (human) (UniProt Q15418)
[31] = target: NUAK2 (human) (UniProt Q9H093)
[32] = target: FGFR2 (human) (UniProt P21802)
[33] = target: PKN3 (M.tuberculosis) (UniProt Q6P5Z2)
[34] = target: BMPR1A (human) (UniProt P36894)
[35] = target: CAMKK1 (human) (UniProt Q8N5S9)
[36] = target: BRSK1 (human) (UniProt Q8TDC3)
BRSK1 (human), sequence (Q8TDC3 whole entry, looked up): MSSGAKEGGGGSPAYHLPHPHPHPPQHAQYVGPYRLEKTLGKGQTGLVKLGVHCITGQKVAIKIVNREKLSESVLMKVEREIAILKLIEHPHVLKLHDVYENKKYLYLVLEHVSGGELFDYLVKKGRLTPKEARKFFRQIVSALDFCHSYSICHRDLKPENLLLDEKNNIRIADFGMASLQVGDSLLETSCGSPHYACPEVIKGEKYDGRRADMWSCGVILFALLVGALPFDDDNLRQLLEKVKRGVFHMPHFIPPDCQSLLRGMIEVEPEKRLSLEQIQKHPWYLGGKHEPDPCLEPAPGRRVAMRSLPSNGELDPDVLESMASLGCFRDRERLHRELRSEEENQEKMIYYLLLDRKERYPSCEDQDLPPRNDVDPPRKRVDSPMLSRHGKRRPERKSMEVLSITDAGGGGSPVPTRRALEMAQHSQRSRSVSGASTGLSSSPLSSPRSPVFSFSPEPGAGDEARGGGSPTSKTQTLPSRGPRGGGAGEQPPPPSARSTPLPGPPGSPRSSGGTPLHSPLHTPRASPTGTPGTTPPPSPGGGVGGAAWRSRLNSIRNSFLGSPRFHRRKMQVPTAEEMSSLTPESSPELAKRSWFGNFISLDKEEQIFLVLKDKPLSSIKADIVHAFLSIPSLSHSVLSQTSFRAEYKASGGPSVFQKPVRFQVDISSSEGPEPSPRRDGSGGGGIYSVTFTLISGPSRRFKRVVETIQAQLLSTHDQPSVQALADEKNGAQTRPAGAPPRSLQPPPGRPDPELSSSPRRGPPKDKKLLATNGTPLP

[37] = target: PDGFRA (human) (UniProt P16234)
[38] = target: PHKG1 (human) (UniProt Q16816)
[39] = target: PKN2 (human) (UniProt Q16513)
[40] = target: DDR2 (human) (UniProt Q16832)

In the case of `COc1cc(C(=O)N2CCC(N3CCN(C)CC3)CC2)ccc1Nc1ncc2c(n1)N(C)c1ccccc1C(=O)N2C`, the kinase still bound, per cent of control [1] is reported as 85%, the kinase still bound, per cent of control [2] is reported as 100% and the kinase still bound, per cent of control [3] is reported as 24%. The kinase still bound, per cent of control [4] was 50%, the kinase still bound, per cent of control [5] was 98% and the kinase still bound, per cent of control [6] was 67%. It also gave a kinase still bound, per cent of control [7] of 84%, a kinase still bound, per cent of control [8] of 79% and a kinase still bound, per cent of control [9] of 0.05%. For the same molecule, the kinase still bound, per cent of control [10] was 96%, the kinase still bound, per cent of control [11] was 92% and the kinase still bound, per cent of control [12] was 100%. It also gave a kinase still bound, per cent of control [13] of 100%, a kinase still bound, per cent of control [14] of 100% and a kinase still bound, per cent of control [15] of 100%. For the same molecule, the kinase still bound, per cent of control [16] was 51%, the kinase still bound, per cent of control [17] was 85% and the kinase still bound, per cent of control [18] was 75%. The kinase still bound, per cent of control [19] was 100%, the kinase still bound, per cent of control [20] was 72% and the kinase still bound, per cent of control [21] was 100%. It also gave a kinase still bound, per cent of control [22] of 54%, a kinase still bound, per cent of control [23] of 80% and a kinase still bound, per cent of control [24] of 87%. It also gave a kinase still bound, per cent of control [25] of 100%, a kinase still bound, per cent of control [26] of 100% and a kinase still bound, per cent of control [27] of 92%. The kinase still bound, per cent of control [28] was 100%, the kinase still bound, per cent of control [29] was 100% and the kinase still bound, per cent of control [30] was 73%. The kinase still bound, per cent of control [31] was 47%, the kinase still bound, per cent of control [32] was 95% and the kinase still bound, per cent of control [33] was 100%. It also gave a kinase still bound, per cent of control [34] of 76%, a kinase still bound, per cent of control [35] of 73% and a kinase still bound, per cent of control [36] of 81%. For the same molecule, the kinase still bound, per cent of control [37] was 100%, the kinase still bound, per cent of control [38] was 54% and the kinase still bound, per cent of control [39] was 95%. The kinase still bound, per cent of control [40] was 100%.
